# From patent US9631002B2, “Methods and compositions for producing active vitamin K-dependent proteins” (The University of North Carolina at Chapel Hill, priority 2010, dated 2017)
# Where a chain is given by its changes, count along the chain named. In names and notes the source's numbering stands. Read-outs that look alike come from different tables or passages of the source.
# B1: CO-VKORH: Corynebacterium jeikeium K411 VKORH, SEQ ID NO:23 (protein, listed as Corynebacterium jeikeium)
# chain: MWVWWGREGVSNKESEHMNGLGATKRFGYTFLVLSTIGLIFSALIMHDKVQMALDPNFEPACTFNEVISCTDVMASDQAATFGFANPFIGMIGFPVMMTLAVMLIVGAKLPRWIWYCALAGLAFGVAFVHWLAYSAIYSIGALCPYCMAVWAATLPMFVMTLVHIQREKRREAGEDVAHSALGMPLVVIIAWFLAFTALILDQFVF
# B2: VKOR-Y139F: human VKOR rendered warfarin resistant by Y139F mutation; control (protein, UniProt Q9BQB6 1-163, looked up, variant Y139F)
# Vitamin K epoxide reductase …: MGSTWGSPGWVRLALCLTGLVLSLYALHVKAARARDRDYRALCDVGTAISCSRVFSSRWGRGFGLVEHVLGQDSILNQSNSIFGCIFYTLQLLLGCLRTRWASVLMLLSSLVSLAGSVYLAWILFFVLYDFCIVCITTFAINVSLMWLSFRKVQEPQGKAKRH
# B3: C16A: warfarin resistant human VKOR (Y139F) with C16 mutated to alanine (protein, UniProt Q9BQB6 1-163, looked up, variant C16A)
# Vitamin K epoxide reductase …: B2 Vitamin K epoxide reductase … with C16A, F139Y
# B4: C43A: warfarin resistant human VKOR (Y139F) with C43 mutated to alanine (protein, UniProt Q9BQB6 1-163, looked up, variant C43A)
# Vitamin K epoxide reductase …: B2 Vitamin K epoxide reductase … with C43A, F139Y
# How the values were obtained:
# [1] = test system: FIXgla-PC carboxylation in HEK 293 cells; assay type: cell-based, human; conditions: for inhibition of FIXgla-PC carboxylation by 2 μM warfarin: 5 μM KO as substrate
# [2] = test system: FIXgla-PC carboxylation in AV12 cells
# [3] = test system: carboxylation of FIXgla-PC reporter protein in AV12 cells (reduction of vitamin K to KH2); assay: Cell-based VKOR activity assay in FIXgla-PC/AV12 or FIXgla-PC/VKOR-Y139F/AV12 cells, carboxylated reporter by ELISA; design: species or system Syrian golden hamster
# [4] = test system: carboxylation of FIXgla-PC reporter protein in HEK293 cells (reduction of KO to vitamin K); assay: Cell-based VKOR activity assay: recombinant VKOR/VKORH expressed in FIXgla-PC/HEK293 cells with KO and warfarin, carboxylated reporter by ELISA; design: species or system human; conditions: for carboxylation of reporter protein by human VKOR cysteine mutants: Y139F background, 4 μM warfarin, HEK293 (FIG. 13); for activity in the in vivo assay: cysteine mutants of VKOR-Y139F
# [5] = literature refs 18, 25; cited from earlier work
# [6] = Activity of warfarin-resistant Y139F human VKOR relative to wild-type human VKOR
# [7] = previous in vitro results; cited from earlier work
molecule,measurement,setting,value
CC(=O)CC(c1ccccc1)c1c(O)c2ccccc2oc1=O (stereo not drawn) [warfarin],carboxylated reporter protein detected in the medium in the presence of warfarin,"[1]; 1 μM vitamin K, 2 μM warfarin, HEK293",less than 20%
same,carboxylation of reporter protein by endogenous VKOR at 4 μM warfarin,"[1]; 4 μM warfarin, HEK293",completely abolished
same,inhibition of FIXgla-PC carboxylation by 2 μM warfarin,"[1]; 2 μM warfarin, HEK293",completely inhibited
same,inhibition of FIXgla-PC carboxylation by 2 μM warfarin,"[1]; 2 μM warfarin, HEK293, listed as Warfarin",eliminated KO-supported carboxylation
same,"levels of carboxylated protein in the presence of warfarin, cells fed vitamin K","[1]; 11 μM vitamin K as substrate, HEK293",unaffected
same,IC50,"[1]; Homo sapiens, KO (5 μM) as substrate, 48 h, HEK293, read-out: warfarin concentration giving 50% inhibition of FIXgla-PC carboxylation",100 nM
same,effect of warfarin on reporter protein carboxylation,"[2]; AV12 stably over expressing VKOR-Y139F, 5 μM KO, 2 μM warfarin",abolished reporter protein carboxylation
same,inhibition of production of carboxylated reporter protein by warfarin,"[2]; vitamin K as substrate, AV12",significantly inhibited
same,residual activity,"[2]; vitamin K as substrate, warfarin, AV12 (FIG. 4A)",~20%
"CC1=C(C/C=C(\C)CCC[C@H](C)CCC[C@H](C)CCCC(C)C)C(=O)c2ccccc2C1=O [vitamin K, Vitamin K1]",increase in secretion of carboxylated reporter protein compared to no additions,"[1]; 11 μM vitamin K or 5 μM KO, HEK293",approximately 25 fold
same,vitamin K concentration at which carboxylation occurred maximally,"[1]; absence of warfarin, HEK293, 48 h",1 µM
same,vitamin K concentration at which maximal carboxylation was detected,"[1]; presence of 2 μM warfarin, HEK293, 48 h",22 µM
same,vitamin K concentration at which maximum carboxylation of FIXgla-PC occurs,[2]; AV12 cells,2.5 µM
O=c1oc2ccccc2c(O)c1Cc1c(O)c2ccccc2oc1=O [dicoumarol],reporter protein carboxylated,"[1]; 20 μM dicoumarol, HEK293, vitamin K",60%
same,inhibition of reporter protein carboxylation by dicoumarol,"[1]; KO as vitamin K source, HEK293",significantly inhibited
same,inhibition of reporter protein carboxylation by dicoumarol,"[1]; cells fed vitamin K, HEK293",only minimal inhibition
same,decrease of carboxylation of the reporter protein,"[1]; vitamin K as substrate, dicoumarol",~20%
same,inhibition of reporter protein carboxylation by dicoumarol,"[2]; vitamin K present, AV12",completely inhibited
B1,ability to reduce vitamin K to KH2 compared with MT-VKORH,[3]; FIXgla-PC/VKOR-Y139F/AV12 (FIG. 21C),higher than the KO to vitamin K reduction
same,activity relative to MT-VKORH,"[4]; KO as substrate, FIXgla-PC/HEK293 (FIG. 21B)",70%
B2,increase of reporter protein carboxylation by over-expression,"[3]; stable expression in AV12, 5 μM KO, no warfarin (FIG. 7B)",approximately two-fold
same,carboxylated reporter protein secreted,"[3]; transient expression in FIXgla-PC/AV12, 5 μM KO, 2 μM warfarin (FIG. 7A)",no carboxylated reporter protein was secreted
same,support of reporter protein carboxylation,"[3]; transient expression in FIXgla-PC/AV12 not stably expressing VKOR-Y139F, KO and warfarin (FIG. 19B)",did not support carboxylation of the reporter protein
same,carboxylation of reporter protein by human VKOR cysteine mutants,[4],restored
same,increase of carboxylated reporter protein compared to the control,"[4]; transient expression, 5 μM KO, 2 μM warfarin, HEK293, control empty vector",~20 fold
same,fraction of wild-type activity,[5],~40%
same,reduction in the activity of human VKOR caused by the Y139F mutation,[6],approximately 50%
same,fraction of wild-type VKOR activity observed,[6]; Y139F human VKOR,About 50%
B3,activity in the in vivo assay,"[4]; 5 μM KO, 4 μM warfarin (FIG. 17A)",no effect on activity
same,activity in the in vitro assay,[7],~40%
B4,carboxylation of reporter protein by human VKOR cysteine mutants,[4],dramatically decreased activity
same,activity in the in vivo assay,"[4]; 5 μM KO, 4 μM warfarin (FIGS. 17A-B)",~5%
same,activity in the in vitro assay,[7],~30%
